Data as given in US11472778B2, “Hepatitis C virus NS3/4A protease inhibitors” (priority 2017, dated 2022).
Where two headings read alike, the source gives them in different places.

How the values were obtained:
[1] = molecular target: T1, GT1a D168A NS3/4A protease (UniProt P27958, C1185S/D1194A, species not given); type: biochemical, Hepatitis C virus; details: read-out: Ki (nM) GT1a D168A NS3/4A Protease
T1 construct: Ki (nM) GT1a D168A NS3/4A Protease
Method: (§1) For each assay, 2 nM of NS3/4A protease (GT1, D168A and GT3) was pre-incubated at room temperature for 1 h with increasing concentration of inhibitors in assay buffer [50 mM Tris, 5% glycerol, 10 mM DTT, 0.6 mM LDAO, and 4% dimethyl sulfoxide]. Inhibition assays were performed in nonbinding surface 96-well black half-area plates (Corning) in a reaction volume of 60 μt. […] Three independent data sets were collected for each inhibitor with each protease construct.
as §1, with “(GT1a” for “(GT1, D168A”, “D168A)” for “GT3)”, “(50” for “[50”, “sulfoxide, pH 7.5).” for “sulfoxide].”, “non-binding” for “nonbinding”, “μL.” for “μt.”
(§2) For each assay, 2 nM of NS3/4A protease (GT1a, R155K and D168A) was pre-incubated at room temperature for 1 h with increasing concentration of inhibitors in assay buffer (50 mM Tris, 5% glycerol, 10 mM DTT, 0.6 mM LDAO, and 4% dimethyl sulfoxide, pH 7.5). Inhibition assays were performed in non-binding surface 96-well black half-area plates (Corning) in a reaction volume of 60 μL. […] Three independent data sets were collected for each inhibitor with each protease construct. […] Gibbs free energy of binding was calculated using the following equation: ΔG=RTlnKi

[2] = molecular target: GT1a D168A NS3/4A protease; type: biochemical, Hepatitis C virus; details: Table 3; Ki D168A relative to GT1a WT
Method: as §1
(§3) For each assay, 2 nM of NS3/4A protease (GT1a and D168A) was pre-incubated at room temperature for 1 h with increasing concentration of inhibitors in assay buffer (50 mM Tris, 5% glycerol, 10 mM DTT, 0.6 mM LDAO, and 4% dimethyl sulfoxide, pH 7.5). Inhibition assays were performed in non-binding surface 96-well black half-area plates (Corning) in a reaction volume of 60 μL. […] Three independent data sets were collected for each inhibitor with each protease construct.
as §2

[3] = molecular target: T2, wild-type GT1a NS3/4A protease (UniProt P27958, C1185S, species not given); type: biochemical, Hepatitis C virus; details: read-out: Ki (nM) GT1a WT NS3/4A Protease
T2 construct: Ki (nM) GT1a WT NS3/4A Protease
Method: as §1, §3, §2

GT3a NS3/4A protease = molecular target: T3, GT3a NS3/4A protease (Hepatitis C virus genotype 3a, UniProt Q81495); experiment: biochemical; details: for Ki (Fold change) GT3a NS3/4A Protease: Table 3, Ki GT3a relative to GT1a WT
T3 construct: drug-resistant variant D168A, and GT3a NS3/4A protease; made in house; host or cells: Escherichia coli BL21(DE3)
Method: as §1

[4] = system: wild-type HCV replicon in Huh7 cells; experiment: Cell-based drug susceptibility (replicon) assay, wild-type; details: Hepatitis C virus, read-out: Replicon EC50 (nM) WT
Method: (§4) Mutations (R155K, A516T, D168A and D168V) were constructed by site-directed mutagenesis using a Con1 (genotype 1b) luciferase reporter replicon containing the H77 (genotype 1a) NS3 sequence.
(§5) Replicon RNA of each protease variant was introduced into Huh7 cells by electroporation. Replication was then assessed in the presence of increasing concentrations of protease inhibitors by measuring luciferase activity (relative light units) 96 h after electroporation.
(§6) Mutations (R155K, D168A and A156T) were constructed by site-directed mutagenesis using a Con1 (genotype 1b) luciferase reporter replicon containing the H77 (genotype 1a) NS3 sequence.^6 Replicon RNA of each protease variant was introduced into Huh7 cells by electroporation. Replication was then assessed in the presence of increasing concentrations of protease inhibitors by measuring luciferase activity (relative light units) 96 h after electroporation.

[5] = system: HCV replicon A156T variant in Huh7 cells; experiment: microbe, parasite or virus in culture; type: cell-based, Hepatitis C virus; details: for EC50: Hepatitis C virus; for Replicon EC50 (Fold change) A156T: Table 4, relative to WT replicon
Method: as §4, §5, §6

[6] = system: HCV replicon D168A variant in Huh7 cells; experiment: microbe, parasite or virus in culture; type: cell-based, Hepatitis C virus; details: for EC50: Hepatitis C virus; for Replicon EC50 (Fold change) D168A: Table 4, relative to WT replicon
Method: as §4, §5, §6

[7] = system: HCV replicon R155K variant in Huh7 cells; experiment: microbe, parasite or virus in culture; type: cell-based, Hepatitis C virus; details: for EC50: Hepatitis C virus; for Replicon EC50 (Fold change) R155K: Table 4, relative to WT replicon
Method: as §4, §5, §6

[8] = system: HCV replicon D168V variant in Huh7 cells; experiment: microbe, parasite or virus in culture; type: cell-based, Hepatitis C virus; details: for EC50: Hepatitis C virus; for Replicon EC50 (Fold change) D168V: Table 4, relative to WT replicon
Method: as §4
Replicon RNA of each protease variant was introduced into Huh7 cells by electroporation. Replication was then assessed in the presence of increasing concentrations of protease inhibitors by measuring luciferase activity (relative light units) 96 h after electroporation. […]

[9] = Huh-7, 96 h, Table 2, Huh7 cells, luciferase 96 h
[10] = Huh-7, 96 h, read-out: Replicon EC50 (nM) A156T, Table 2, Huh7 cells, luciferase 96 h
[11] = Huh-7, read-out: Replicon EC50 (nM) A156T, Table 4
[12] = Huh-7, 96 h, read-out: Replicon EC50 (nM) D168A, Table 2, Huh7 cells, luciferase 96 h
[13] = Huh-7, read-out: Replicon EC50 (nM) D168A, Table 4
[14] = Huh-7, 96 h, read-out: Replicon EC50 (nM) R155K, Table 2, Huh7 cells, luciferase 96 h
[15] = Huh-7, read-out: Replicon EC50 (nM) R155K, Table 4
[16] = Huh-7, 96 h, read-out: Replicon EC50 (nM) D168V, Table 2, Huh7 cells, luciferase 96 h
[17] = Huh-7, read-out: Replicon EC50 (nM) D168V, Table 4

T3 sequence (Q81495 1033-1214): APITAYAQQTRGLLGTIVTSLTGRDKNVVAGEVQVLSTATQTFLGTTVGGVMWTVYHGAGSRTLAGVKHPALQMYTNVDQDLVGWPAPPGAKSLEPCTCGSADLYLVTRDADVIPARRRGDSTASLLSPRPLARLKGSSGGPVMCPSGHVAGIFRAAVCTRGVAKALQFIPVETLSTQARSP

Row | SMILES | Ki ([1]; Table 1) | Ki ([1]; Table 3) | Ki (Fold change) GT1a D168A NS3/4A Protease [2] | Ki ([3]; Table 1) | Ki ([3]; Table 3) | Ki (GT3a NS3/4A protease) | Ki (Fold change) GT3a NS3/4A Protease (GT3a NS3/4A protease) | EC50 [4, 9] | EC50 ([4]; Huh-7, Table 4) | EC50 [5, 10] | EC50 [5, 11] | Replicon EC50 (Fold change) A156T [5] | EC50 [6, 12] | EC50 [6, 13] | Replicon EC50 (Fold change) D168A [6] | EC50 [7, 14] | EC50 [7, 15] | Replicon EC50 (Fold change) R155K [7] | EC50 [8, 16] | EC50 [8, 17] | other results
1 | COc1ccc2nc(Cl)c(O[C@@H]3C[C@H]4C(=O)N[C@]5(C(=O)NS(=O)(=O)C6CC6)C[C@H]5/C=C\CCCCC[C@H](NC(=O)OC5CCCC5)C(=O)N4C3)nc2c1 [Compound 22c, Cyclopentyl ((2R,6S,13aS,14aR,16aS,Z)-2-((3-chloro-7-methoxyquinoxalin-2-yl)oxy)-14a-((cyclopropylsulfonyl)carbamoyl)-5,16-dioxo-1,2,3,5,6,7,8,9,10,11,13a,14,14a,15,16,16a-hexadecahydrocyclopropa[e]pyrrolo[1,2-a][1,4]diazacyclopentadecin-6-yl)carbamate] | 30.6 nM | 30.6 ± 2.6 nM | (62) fold | 0.49 nM | 0.49 nM | 85.6 nM | (175) fold | 0.15 nM | 0.15 nM | 3.55 nM | 3.55 nM | (24) fold | 1.32 nM | 1.32 nM | (9) fold | 0.59 nM | 0.59 nM | (4) fold | 1.55 nM | 1.55 nM | Replicon EC50 (Fold change) D168V [8]: (10) fold
2 | COc1ccc2nc(C(F)(F)F)c(O[C@@H]3C[C@H]4C(=O)N[C@]5(C(=O)NS(=O)(=O)C6CC6)C[C@H]5/C=C\CCCCC[C@H](NC(=O)OC5CCCC5)C(=O)N4C3)nc2c1 [Compound 22d, Cyclopentyl ((2R,6S,13aS,14aR,16aS,Z)-14a-((cyclopropylsulfonyl)carbamoyl)-2-((7-methoxy-3-(trifluoromethyl)quinoxalin-2-yl)oxy)-5,16-dioxo-1,2,3,5,6,7,8,9,10,11,13a,14,14a,15,16,16a-hexadecahydrocyclopropa[e]pyrrolo[1,2-a][1,4]diazacyclopentadecin-6-yl)carbamate] | 115 nM | 115 ± 12 nM | (15) fold | 7.55 nM | 7.55 nM | 757 nM | (100) fold | 4.86 nM | 4.86 nM | 117 nM | 117 nM | (24) fold | 15.1 nM | 15.1 nM | (3) fold | 7.97 nM | 7.97 nM | (2) fold | 24 nM | 24 nM | Replicon EC50 (Fold change) D168V [8]: (5) fold
